According to patent US6833380B2, “Compounds that modulate PPAR activity and methods of preparation” (Warner-Lambert Company, LLC, priority 2002, dated 2004):

Key:
hPPARα chimeric receptor = molecular target: T1, hPPARα chimeric receptor (Homo sapiens, UniProt Q07869); test: Transient transfections assay using the HepG2 hepatoma cell line (Gal4-PPAR chimeric receptor, luciferase reporter), hPPARα; assay type: cell-based; details: HepG2 cells transiently transfected, 24 hours incubation, read-out: Hep G2-hα EC50
T1 construct: "expression plasmids encoding hPPARα, hPPARβ or mPPARγ chimeric receptors"
T1 sequence (Q07869 200-468 limits assumed): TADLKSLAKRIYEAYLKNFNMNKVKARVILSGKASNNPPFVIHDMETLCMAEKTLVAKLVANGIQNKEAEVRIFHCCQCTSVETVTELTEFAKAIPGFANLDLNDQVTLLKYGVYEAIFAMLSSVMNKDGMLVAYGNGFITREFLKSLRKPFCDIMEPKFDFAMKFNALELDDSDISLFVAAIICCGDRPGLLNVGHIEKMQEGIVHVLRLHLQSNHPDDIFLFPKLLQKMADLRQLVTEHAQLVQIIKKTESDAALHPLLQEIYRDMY
Experimental: (§1) 1. Test A. Transient Transfections Assay using the HepG2 Hepatoma Cell Line.
(§2) HepG2 cells were transiently transfected with an expression plasmids encoding hPPARα, hPPARβ or mPPARγ chimeric receptors and a reporter containing the yeast upstream activating sequence (UAS) upstream of the viral E1B promoter controlling a luciferase reporter gene. In addition, the plasmid pRSVβ-gal was used to control for transfection efficiency. HepG2 cells were grown in DMEM supplemented with 10% FBS and […] non-essential amino acid. On the first day, cells were split into 100 mm dishes at 2.5×10^6/dish and incubated overnight at 37° C./5% CO2. On the second day the cells were transiently transfected with plasmid DNA encoding a chimeric receptor, the luciferase reporter gene; and β-gal. For each 100 mm dish, 15 μg of lucifease reporter (PG5E1b) DNA, 15 μg of Gal4-PPAR chimeric receptor DNA, and 1.5 μg of β-gal plasmid DNA were mixed with 1.4 ml of opti-MEM in the tube. 28 μl of LipoFectamine-2000 reagent was added to 1.4 ml of opti-MEM in the tube, and incubate for 5 min at RT. The diluted Lipofectamine-2000 reagent was combined with the DNA mixture, and incubate for 20 min at RT. After fresh medium was added to each 100 mm dish of cells, 2.8 ml of Lipofectamine2000-DNA mixture was added dropwise to the 100 mm dish containing 14 ml of medium, and incubate 37° C. overnight. On day three cells were trypsinized off the 100 mm dishes and re-plated on 96 well plates. Cells were plated at 2.5×10^4 cells per well in 150 μl of media and 50 μl of compound diluted by media was added. The test compound added were in the range from 50 μM to 50 pM. After addition of compounds, the plates were incubated at 37° C. for 24 hours. Subsequently cells were washed with once with 100 μl of PBS, lysed, and processed for measuring luciferase and β-gal activity using Dual-Light luciferase kit from Tropix®, according to the manufacturer's recommendations, on an EG&G Bethold MicroLumat LB96P luminometer. EC50 values were obtained using the GraphPad Prism™ program. […] Accordingly, the compounds of the present invention should find considerable therapeutic applications for hypercholesterolemia and hyperlipidemia.

hPPARβ chimeric receptor = molecular target: T2, hPPARβ chimeric receptor (Homo sapiens, UniProt Q03181); test: Transient transfections assay using the HepG2 hepatoma cell line (Gal4-PPAR chimeric receptor, luciferase reporter), hPPARβ; assay type: cell-based; details: HepG2 cells transiently transfected, 24 hours incubation, read-out: Hep G2-hβ EC50
T2 construct: "expression plasmids encoding hPPARα, hPPARβ or mPPARγ chimeric receptors"
T2 sequence (Q03181 171-441 limits assumed): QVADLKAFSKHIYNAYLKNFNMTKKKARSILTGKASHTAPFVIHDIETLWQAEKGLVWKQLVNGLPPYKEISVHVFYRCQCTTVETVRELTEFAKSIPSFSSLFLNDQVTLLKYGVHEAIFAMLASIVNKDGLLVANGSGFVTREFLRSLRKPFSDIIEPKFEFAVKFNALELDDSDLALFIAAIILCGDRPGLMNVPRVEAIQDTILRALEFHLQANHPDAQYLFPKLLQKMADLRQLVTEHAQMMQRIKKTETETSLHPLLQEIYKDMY
Experimental: as §1, §2

Structure (SMILES) | melting point [°C] | EC50 (hPPARα chimeric receptor) [nM] | EC50 (hPPARβ chimeric receptor) [nM]
Cc1cc(SCc2sc(-c3ccc(C(F)(F)F)cc3)nc2C)c2c(c1OCC(=O)O)CCO2 [Example 5, 2-[5-methyl-7-({4-methyl-2-[4-(trifluoromethyl)phenyl](1,3-thiazol-5-yl)}methylthio)-2,3-dihydrobenzo[b]furan-4-yloxy]acetic acid] | 157 to 158 | 52 | 0.8
Cc1cc(SCc2sc(-c3ccc(C(F)(F)F)cc3)nc2C)c2c(c1OCC(=O)O)CCC2 [Example 6, {5-Methyl-7-[4-methyl-2-(4-trifluoromethyl-phenyl)-thiazol-5-ylmethylsulfanyl]-indan-4-yloxy}-acetic acid] | 184 | 191 | 133
Cc1nc(-c2ccc(C(F)(F)F)cc2)sc1CSc1ccc(OCC(=O)O)c2c1CCCC2 [Example 2, {4-[4-Methyl-2-(4-trifluoromethyl-phenyl)-thiazol-5-ylmethylsulfanyl]-5,6,7,8-tetrahydro-naphthalen-1-yloxy}-acetic acid] | 166 to 167 | 2970 | 52
Cc1nc(-c2ccc(C(F)(F)F)cc2)sc1CSc1ccc(OCC(=O)O)c2c1OCCC2 [Example 1, {8-[4-Methyl-2-(4-trifluoromethyl-phenyl)-thiazol-5-ylmethylsulfanyl]-chroman-5-yloxy}-acetic acid] |  |  | 187
Cc1cc(SCc2sc(-c3ccc(C(F)(F)F)cc3)nc2C)c2c(c1OCC(=O)O)CCCO2 [Example 4, 2-[6-methyl-8-({4-methyl-2-[4-(trifluoromethyl)phenyl](1,3-thiazol-5-yl)}methylthio)chroman-5-yloxy]acetic acid] | 203.5 to 205.5 | 1760 | 45
Cc1nc(-c2ccc(C(F)(F)F)cc2)sc1CSc1ccc(OCC(=O)O)c2ccccc12 [Example 3, {4-[4-Methyl-2-(4-trifluoromethyl-phenyl)-thiazol-5-ylmethylsulfanyl]-naphthalen-1-yloxy}-acetic acid] | 181 to 183 | 3580 | 76
